Measurements published in patent publication US4079133A, “Safer method for dissolving gallstones combining hyodeoxycholic acid with chenodeoxycholic acids” (Warren-Teed Laboratories, Inc., priority 1976, dated 1978).

Key:
[1] = parameters: species or system Long-Evans female rats; settings: rat, in vivo
Experimental: Ten Long-Evans female rats were divided into two groups of five each. The rats were fed Purina® lab chow mixed with CDCA or dried hog bile. The dried hog bile contains approximately 25% CDCA and approximately 40% HDCA and was mixed in the feed at four times the concentration as CDCA so that each group of rats would receive approximately 600 mg. CDCA/kg./day. Following a 2 week treatment, the 10 rats plus five control rats were sacrificed and the blood collected for liver enzyme determinations.

[2] = Pharmacological studies employing rats: liver damage and safening effect (summary statements); assay type: in vivo
Description: The compositions are generally administered in a ratio of CDCA to HDCA in the range of from about 0.7 to about 2.0 and, preferably in the range of from about 0.8 to about 1.5. […] Hog bile generally contains from about 10 to about 50% CDCA and from about 10 to about 50% of HDCA in addition to other bile acids.

[3] = CDCA alone, or HDCA with CDCA relative to CDCA

## C[C@H](CCC(=O)O)[C@H]1CC[C@H]2[C@@H]3[C@H](O)C[C@@H]4C[C@H](O)CC[C@]4(C)[C@H]3CC[C@]12C [CDCA, 3α, 7α-dihydroxy-5β-cholanic acid]
[1]
  Bodyweights, Week 0: 284.6 gms
  Bodyweights, Week 1: 256.4 gms
  Feed Consumption, Week 0: 18.6 gms/da
  Feed Consumption, Week 2: 11.7 gms/da
[2]; CDCA alone
  periportal hepatitis: slight to mild periportal hepatitis
[2]; [3]
  alkaline phosphatase (alk. phos.) in the blood: elevations
  serum glutamic pyruvic transaminase (SGPT) in the blood: elevations
  serum glutamic-oxaloacetic transaminase (SGOT) in the blood: elevations
[2]; CDCA alone, slight to mild periportal hepatitis also seen
  nuclear enlargement of the hepatocytes: nuclear enlargement of the hepatocytes
